Laboratory results published in US20230332203A1, “RAPID ANTIBIOTIC SUSCEPTIBILITY TESTING” (IOWA STATE UNIVERSITY RESEARCH FOUNDATION, INC., priority 2022, published 2023).

Legend:
[1] = test system: Staphylococcus aureus 25923 (susceptible); test: Microdroplet culture with D2O labeling, average mass of PG 32:0 by MALDI-MS (Orbitrap and Biotyper); assay type: cell-based; conditions: increasing methicillin concentration, 20% D2O, 4 hours
Experimental: (§1) The disclosed method was tested using the Bruker Biotyper and the results were compared to data using the method that was previously established on an Orbitrap mass spectrometer. A common cell membrane lipid, phosphatidylglycerol (PG) 32:0 was used as an indicator. Since a higher average mass is indicative of more growth, a reduced average mass indicates susceptibility to methicillin. The Biotyper is an economical and more accessible instrument but has less resolution and more error in the measurements. However, data from the Biotyper results in the same conclusions when compared to data from the Orbitrap. […]
(§2) μFocus samples were analyzed in negative ion mode using an Orbitrap Q Exactive HF mass spectrometer (Thermo Scientific, San Jose, CA) with a Spectroglyph MALDI source (Spectroglyph, Kennewick, WA) equipped with a 349 nm laser (Explorer One; Spectra Physics, Milpitas, CA) using a 500 Hz repetition rate and ˜4 μJ per shot. Samples were analyzed at 120,000 resolving power at m/z 200. Spots were analyzed using 60 μm spatial resolution to ensure a good representation of the sample and resulting spectra were averaged in Xcalibur. Masslists from averaged spectra were then exported to .csv files and average mass of membrane lipids were calculated using a custom Python script. […]

[2] = test system: methicillin-resistant Staphylococcus aureus 33591; test: as above; assay type: cell-based; conditions: range of methicillin concentrations, 20% D2O, 4 hours
Experimental: as §1, §2

COc1cccc(OC)c1C(=O)N[C@@H]1C(=O)N2[C@@H]1SC(C)(C)[C@@H]2C(=O)O [methicillin]
effect on average mass of PG 32:0 [1]: constant decrease | effect on average mass of PG 32:0 [2]: does not decrease the average mass significantly
